The values that follow come from patent US11981740B2, “BAFF-R antibodies and uses thereof” (CITY OF HOPE, priority 2016, dated 2024).

One series concerns SP49 cells. Kind of series: Ibrutinib sensitivity of parental SP49 cells. The class given is cell-based. From the text: (§1) Animals, cell lines, and primary human tumor samples. BALB/c mice for antibody development and NOD scid gamma (NSG) breeding pairs were purchased from The Jackson Laboratory (Bar Harbor, ME). The NSG breeding colony was maintained by the Animal Resource Center at City of Hope. Mice were housed in a pathogen-free animal facility according to institutional guidelines. All animal studies were approved by the Institutional Animal Care and Use Committee (IACUC: 15020). JeKo-1, SU-DHL-6, Raji, U266 and RL were purchased from ATCC (Manassas, VA). Z-138 line was provided by Dr. Michael Wang (MD Anderson Cancer Center). Ibrutinib-resistant SP49-IR line was developed and provided by Dr. Jianguo Tao (University of South Florida). Ibrutinib-resistant SP49 cell lines (SP49-IR) were established by treating cells with escalating doses of ibrutinib. IC50 was 5 nM for parental SP49 compared to >100 nM for SP49-IR. At 100 nM ibrutinib ˜5% of SP49 cells were viable compared with >90% of SP49-IR cells. Human NK-92 176V cells were obtained from Conkwest Inc. (San Diego, CA). For human blood and tumor samples, non-cultured, primary human lymphomas were obtained as cryopreserved, viable single cell suspensions in 10% DMSO from the Lymphoma Satellite Tissue Bank at MD Anderson Cancer Center under an Institutional Review Board approved protocol (IRB: 2005-0656). […]

For a further series, the system named is SP49-IR cells. In words: Ibrutinib sensitivity of ibrutinib-resistant SP49-IR cells. The series is classed as cell-based.
Source text: as §1

A further series concerns JeKo-1-CD20-KO clone 25. Kind of series: ADCC on rituximab-resistant JeKo-1-CD20-KO. The following applies: E:T=20:1. The series is classed as cell-based. How it is done: FIGS. 5A, 5B and 5C are images or graphs showing chimeric BAFF-R antibodies induce ADCC on drug resistant lymphoma models in vitro. FIG. 5A is a scatterplot of FACS analysis showing CD20 binding on JeKo-1 cells following CRISPR/HDR knock-out of CD20 gene. CD20 expression on selected CD20−/−clone #25 compared to WT JeKo-1. ADCC effects measured by chromium-51 release after incubation with C55, C90, or rituximab and effectors NK cells (E:T=20:1). Percentage of cell specific lysis of target cells: rituximab-resistant JeKo-1-CD20-KO (FIG. 5B) and ibrutinib-resistant Z-138 and SP49-IR (FIG. 5C). All data are representative of two or more identical experiments. Data are shown as the mean±s.d. of triplicate samples. *P<0.05 compared with NK cells by two-tailed Student's t-test.
Cytotoxicity assays. Target cells (L cells, human tumor lines, primary patient samples) were labeled with chromium-51 (51Cr, Perkin Elmer, Waltham, MA) for a 51Cr release assay. Briefly, antibodies and effectors (NK cells or complement serum standard [Sigma Aldrich, St. Louis, MO]), were added to labeled target cells and incubated up to 18 hours. NK cells were enriched from PBMC (NK cell enrichment kit, Stemcell Technologies, Vancouver, Canada). 51Cr released into supernatant was detected with a Wizard Automatic Gamma Counter (Perkin Elmer).
Generation of JeKo-1-CD20-KO. […]

The test system of series [1] is JeKo-1-CD20-KO tumor cells. In words: In vivo JeKo-1-CD20-KO xenograft. The following applies: Day 20. Further details: species or system NSG mice. The source says:
FIGS. 6A and 6B are images and FIG. 6C are graphs showing chimeric antibodies targeting human BAFF-R elicited in vivo therapeutic effects against drug resistant B-cell tumors. Bioluminescence images of mice challenged with luciferase-expressing tumors JeKo-1-CD20-KO cells (FIG. 6A) or ibrutinib-resistant Z-138 cells (FIG. 6B) followed by antibody treatments as in FIG. 4. Control group mice received PBS, NK cells alone, or rituximab on the same schedule. […] Tumor free rate and survival differences between experimental and all control groups were analyzed by log-rank test (**P<0.001). Data are representative of three independent experiments.
(§2) In vivo studies. For tumor models, stable, luciferase-expressing tumors lines were established for bioluminescent imaging in mouse models. Briefly, a luciferase gene was introduced into tumor lines by a lentivirus gene delivery system (pLenti7.3/V5-DEST Gateway Vector Kit, Life Technologies, Carlsbad, CA). The minimum lethal dose per mouse was determined for each tumor cell line by dose titration. Tumor cells were injected intravenously (IV) and mice were monitored by in vivo bioluminescence imaging for minimum tumor dose to ensure engraftment. Minimum lethal tumor doses were: 1×10^6 JeKo-1, 5×10^5 RS4; 11, 5×10^5 JeKo-1-CD20-KO, or 2.5×10^4 Z-138 cells. […]

Series [2] has as its system JeKo-1, Z138, and RS4 lines. Kind of series: ADCC chromium release of humanized C90-4 and C90-5, dose response. The class given is cell-based. The note with it: RS4 acute lymphoblastic lymphoma. How it is done:
FIGS. 21A and 21B are graphs showing humanized antibodies C90-4 and C90-5 analyzed for their specific cytotoxicity of various lymphoma lines. For FIG. 21A, JeKo-1, Z138, and RS4 were subjected to a chromium release assay with humanized antibodies C90-4 and C90-5. Antibodies were administered to the cell lines at concentrations between 0 to 5 μg/mL and incubated for 6 hours with NK cells at an E:T ratio of 20:1. The cell supernatants were analyzed for their chromium content. For FIG. 21B, LY-10, MEC-2, RL, and Raji lymphoma lines were subjected to a chromium release assay with humanized antibodies C90-4 and C90-5. Antibodies were administered to the cell lines at 5 μg/mL and incubated for 6 hours with NK cells at an E:T ratio of 20:1. The cell supernatants were analyzed for their chromium content.
The two variants were further assessed in their ability to initiate ADCC. The antibodies were administered in varying concentration to JeKo-1, Z138, and RS4 lines after a period of chromium uptake. The cells and antibodies were incubated with effector NK cells. The supernatant was analyzed 6 hours post treatment (FIG. 21A).

The subject of series [3] is RS4; 11 (acute lymphoblastic leukemia, ALL). In words: In vivo RS4;11 ALL xenograft, bioluminescence imaging. The note with it: RS4;11 challenged NSG mice.
Source text: FIG. 4A is a schematic showing treatment schedule following Day 0 tumor challenge with minimum lethal dose of tumors. Treatments were given by IV tail vein injections. FIGS. 4B and 4C are images showing chimeric antibodies targeting human BAFF-R elicited in vivo therapeutic effects against B-cell tumors. Bioluminescence images of mice challenged with luciferase-expressing tumors: JeKo-1 (MCL) (FIG. 4B) or RS4; 11 (ALL) (FIG. 4C). Experimental groups received treatment of chimeric BAFF-R mAbs (C55 or C90, as indicated). Control group mice received PBS, NK cells alone, or rituximab on the same schedule. Data are representative of three independent experiments.
as §2

On to `C=CC(=O)N1CCC[C@@H](n2nc(-c3ccc(Oc4ccccc4)cc3)c3c(N)ncnc32)C1` [ibrutinib], for which the viability at 0.1 µM in the series on SP49 cells (At 100 nM ibrutinib, SP49, read-out: viable cells) was around 5%; in the series on SP49-IR cells (At 100 nM ibrutinib, read-out: viable cells), above 90%. Moreover, the results for the IC50 in the series with SP49 cells (parental SP49) and in the series on SP49-IR cells were 5 nM and above 100 nM, respectively.
rituximab [reference compound]: in the series with JeKo-1-CD20-KO clone 25, the “sensitivity to antibody-mediated cytotoxicity” value is “insensitive”. In addition, in series [1], the “tumor burden by bioluminescent imaging” value is on record as “substantial tumor burden”. For the same molecule, the ADCC activity entry in series [2] is on record as “not active”. Moreover, the tumor growth entry in series [3] is given as “no inhibition”.
